Measurements taken from US20140221354A1, “IMIDAZO [1,2-a]PYRIDINE COMPOUNDS FOR USE IN THERAPY” (EMBLEM Technology Transfer GmbH, priority 2011, published 2014).

tested on: CellSensor® HRE-bla HCT-116 stably transfected reporter cell line; test: HIF/HRE reporter assay; type: cell-based; conditions: Homo sapiens, inhibition of activated HIF signaling response, hypoxic conditions induced with deferoxamine (DFO), 24 h incubation, blue/green emission ratio, read-out: Evaluation
Method: Inhibition of an activated HIF signaling response under chemically-induced hypoxic conditions due to compound treatment was determined using the CellSensor® HRE-bla HCT-116 stably transfected reporter cell line from Invitrogen according to the manufacturer's instructions.
Cells were maintained as described previously and seeded into 384-well, clear-bottom plates (Corning 3712) at 15000 cells/well in 32 μl assay medium (Opti-MEM [Invitrogen], 0.5% FBS, 100 U/ml penicillin, 100 μg/ml streptomycin, 0.1 mM non-essential amino acids [NEAA], 1 mM sodium pyruvate, 5 mM HEPES [pH 7.3]). Following a 2 h incubation period, compounds (4 μl) were subsequently added to the cells at 10× concentrations in 5% DMSO and incubated under normal conditions for 30 min. To induce hypoxic conditions, 4 μl of a 2 mM deferoxamine (DFO) solution was added to the cells followed by 24 h incubation under standard assay conditions (as described). Control wells included wells containing only medium (no cells) and wells treated with 0.5% DMSO instead of compound.
Prior to the readout, the Substrate Loading Solution was prepared as described in the manufacturer's protocol and 10 μl added to each well. Following a further 2 h incubation period at room temperature and in the dark, fluorescence was measured at two wavelengths (blue channel: ex. 409 nm, em. 460 nm; green channel: ex. 409 nm, em. 530 nm) on a PerkinElmer Envision HTS. For the analysis, the average signal of the cell-free wells at 460 nm and 530 nm was first subtracted from the blue and green channel data, respectively. The blue/green emission ratios were then calculated for each well, dividing the background-corrected blue emission values by the background-corrected green emission values. […] values were determined from these ratios using GraphPad Prism (Prism 5, GraphPad software, Inc.).

With `N#Cc1ccc(-c2nc3ccc(-c4ccccc4)cn3c2CN2CCNC(=O)C2)s1` [Example 35, 5-(3-((3-oxopiperazin-1-yl)methyl)-6-phenylimidazo[1,2-a]pyridin-2-yl)thiophene-2-carbonitrile] as the compound, how does the EC50 read?
The EC50 was greater than 1000 nM.

How did the EC50 turn out when `COc1ccc(-c2nc3ccc(-c4ccccc4)cn3c2CN2CCNC(=O)C2)cc1` [Example 30, 4-((2-(4-methoxyphenyl)-6-phenylimidazo[1,2-a]pyridin-3-yl)methyl)piperazin-2-one] was run?
Its EC50 is greater than 1000 nM.

`O=[N+]([O-])c1ccc(-c2nc3ccc(-c4ccccc4)cn3c2CN2CCNCC2)cc1` [Example 1, 2-(4-nitrophenyl)-6-phenyl-3-(piperazin-1-ylmethyl)imidazo[1,2-a]pyridine] was tested. Which EC50 did it give?
Its EC50 is less than 500 nM.

How did the EC50 turn out when `CN1CCCN(Cc2c(-c3ccc(C#N)cc3)nc3ccc(-c4ccccc4)cn23)CC1` [Example 34, 4-(3-((4-methyl-1,4-diazepan-1-yl)methyl)-6-phenylimidazo[1,2-a]pyridin-2-yl)benzonitrile] was run?
Its EC50 is less than 500 nM.

With `c1ccc(-c2ccc3nc(-c4cccnc4)c(CN4CCCNCC4)n3c2)cc1` [Example 15, 3-((1,4-diazepan-1-yl)methyl)-6-phenyl-2-(pyridin-3-yl)imidazo[1,2-a]pyridine] as the compound, how does the EC50 read?
Its EC50 is less than 500 nM.

How did the EC50 turn out when `N#Cc1ccc(-c2nc3ccc(-c4cn[nH]c4)cn3c2CN2CCCNCC2)cc1` [Example 37, 4-(3-((1,4-diazepan-1-yl)methyl)-6-(1H-pyrazol-4-yl)imidazo[1,2-a]pyridin-2-yl)benzonitrile] was run?
The EC50 was greater than 1000 nM.

How did the EC50 turn out when `N#Cc1ccc(-c2ccc3nc(-c4ccc(C#N)cc4)c(CN4CCCNCC4)n3c2)cc1` [Example 43, 4,4′-(3-((1,4-diazepan-1-yl)methyl)imidazo[1,2-a]pyridine-2,6-diyl)dibenzonitrile] was run?
Its EC50 is less than 500 nM.

Which EC50 does the source give for `N#Cc1ccc(-c2nc3ccc(-c4ccncc4)cn3c2CN2CCCNCC2)cc1` [Example 27, 4-(3-((1,4-diazepan-1-yl)methyl)-6-(pyridin-4-yl)imidazo[1,2-a]pyridin-2-yl)benzonitrile] here?
Its EC50 is less than 500 nM.

How did the EC50 turn out when `Cc1ccc(-c2nc3ccc(-c4ccccc4)cn3c2CN2CCCNCC2)cc1` [Example 17, 3-((1,4-diazepan-1-yl)methyl)-6-phenyl-2-(p-tolyl)imidazo[1,2-a]pyridine] was run?
Its EC50 is less than 500 nM.

How did the EC50 turn out when `CC(=O)N1CCN(Cc2c(-c3cccc([N+](=O)[O-])c3)nc3ccc(-c4ccccc4)cn23)CC1` [Example 2, 1-(4-((2-(3-nitrophenyl)-6-phenylimidazo[1,2-a]pyridin-3-yl)methyl)piperazin-1-yl)ethanone] was run?
The EC50 was greater than 1000 nM.

With `CCCN1CCN(Cc2c(-c3ccc([N+](=O)[O-])cc3)nc3ccc(-c4ccccc4)cn23)CC1` [Example 5, 2-(4-nitrophenyl)-6-phenyl-3-((4-propylpiperazin-1-yl)methyl)imidazo[1,2-a]pyridine] as the compound, how does the EC50 read?
The EC50 was 500 to 1000 nM.

For `COc1ccc(-c2ccc3nc(-c4ccc(C#N)cc4)c(CN4CCCNCC4)n3c2)cc1` [Example 41, 4-(3-((1,4-diazepan-1-yl)methyl)-6-(4-methoxyphenyl)imidazo[1,2-a]pyridin-2-yl)benzonitrile], which EC50 is on record?
Its EC50 is less than 500 nM.

With `N#Cc1ccc(-c2nc3ccc(-c4ccsc4)cn3c2CN2CCCNCC2)cc1` [Example 44, 4-(3-((1,4-diazepan-1-yl)methyl)-6-(thiophen-3-yl)imidazo[1,2-a]pyridin-2-yl)benzonitrile] as the compound, how does the EC50 read?
The EC50 was less than 500 nM.

With `N#Cc1ccc(-c2nc3ccc(-c4cncnc4)cn3c2CN2CCCNCC2)cc1` [Example 26, 4-(3-((1,4-diazepan-1-yl)methyl)-6-(pyrimidin-5-yl)imidazo[1,2-a]pyridin-2-yl)benzonitrile] as the compound, how does the EC50 read?
Its EC50 is greater than 1000 nM.

With `N#Cc1ccc(-c2nc3ccc(-c4cccnc4)cn3c2CN2CCCNCC2)cc1` [Example 29, 4-(3-((1,4-diazepan-1-yl)methyl)-6-(pyridin-3-yl)imidazo[1,2-a]pyridin-2-yl)benzonitrile] as the compound, how does the EC50 read?
The EC50 was greater than 1000 nM.
